Assay results: publication PMC10138714, “Evaluation of Some Safety Parameters of Dual Histamine H3 and Sigma-2 Receptor Ligands with Anti-Obesity Potential” (International Journal of Molecular Sciences, 2023)

Assays:
sigma-2 receptors = biological target: sigma-2 receptors; set-up: method as in earlier work; conditions: cited from earlier work
mice [1] = experiment: Locomotor activity in mice (activity cages, photobeam breaks); type: in vivo, male Albino Swiss (CD-1) mice; conditions: single i.p. 30 mg/kg b.w., vs vehicle group
Experimental: (§1) Blood pressure measurement and ECG were performed on male Wistar rats weighing 200–220 g (six months old). Locomotor activity and chimney tests were performed on adult male Albino Swiss (CD-1) mice weighing 18–22 g ([…]). The animals were obtained from an accredited animal house at the Faculty of Pharmacy, Jagiellonian University Medical College, Krakow, Poland. The experimental groups consisted of 6–8 animals. The animals were housed in constant temperature (22–24 °C) and humidity (40–60%) facilities, exposed to 12:12 h light/dark cycles, and were maintained on a standard pellet diet with tap water available ad libitum. Rats and mice were housed in pairs or 8 animals per home cage, respectively.
Locomotor activity was individually recorded for each animal using specifically designed activity cages made of clear Perspex (40 cm × 40 cm × 31 cm, Activity Cage 7441, Ugo Basile, Italy). The cages were supplied with I.R. horizontal beam emitters connected to a counter that records the light-beam interruptions. The compounds suspensions were administered as i.p. injections 30 min before testing. Control animals received injections of vehicles. Each mouse was placed in a cage for a 30 min habituation period. After that time, the number of breaks in the photobeams was measured for 5 min, which is the same time as the observation period used in other tests.

mice [2] = experiment: Motor coordination in the chimney test; type: in vivo, male Albino Swiss (CD-1) mice; conditions: chimney test, 30 min after injection, n = 8
Experimental: as §1
The effect of tested compounds on motor impairment were quantified with the chimney test of Boissier et al. (1960). The mice were trained before the test, and only the animals able to get out of the chimney within 1 min were used at the experimental stage. The selected mice were placed in a 25 cm-long and 2.5 cm in diameter […] tube, which was reversed so that the mice could leave it only by climbing up backward until they reached the other end. The test was performed 30 min after injection (i.p.) of the examined compounds. Motor impairment was indicated by the inability of the animals to climb up backwards in the transparent tube within 60 s.

normotensive rats = experiment: Blood pressure in anesthetized normotensive rats (carotid artery cannulation); type: in vivo, male Wistar rats; conditions: single i.p. 10 mg/kg b.w., 30–60 min after administration
Experimental: as §1
Rats were anesthetized with thiopental (70 mg/kg) via i.p. injection. The left carotid artery was cannulated with polyethylene tubing filled with a heparin solution in saline to facilitate pressure measurements using a PowerLab Apparatus (ADInstruments, Sydney, Australia). After a 20 min stabilization period, the test compounds were administered i.p. at a dose of 10 mg/kg b.w. in a constant volume of 1 mL/kg b.w. Blood pressure was recorded immediately before administration and 5, 10, 15, 20, 30, 40, 50, and 60 min after the administration of the test compound [47].

[3] = biological target: T1, human ERG potassium channel (Kv11.1) (Homo sapiens, UniProt Q12809); experiment: Whole-cell automated patch clamp (QPatch16X), inhibition of hERG currents; type: cell-based
T1 construct: expressed in transfected cells
Experimental: Electrophysiology experiments were performed on a QPatch16X automatic patch clamp platform (Sophion Bioscience, Ballerup, Denmark). Chinese hamster ovary (CHO) cells stably expressing the human ERG potassium channel (Kv11.1) were cultured using standard procedures. On the day of the experiment, cells were collected from the culture flask using TrypLE Express solution (Life Technologies, Thermo Fisher Scientific, Carlsbad, California, United States) and resuspended in EX-CELL ACF CHO serum-free medium (Merck KGaA, Sigma-Aldrich, Darmstadt, Germany), supplemented with 25 mM HEPES, 100 U/mL penicillin/streptomycin, and 0.04 mg/mL soybean trypsin inhibitor (all components from Sigma Aldrich).
The cells were placed in the lidless microtube and located onboard the automated electrophysiology instrument, where they were automatically relocated to a built-in centrifuge.
Cells were transferred to pipetting wells of single-use 16-channel planar patch chip plates (QPlate 16X, Sophion Bioscience, Ballerup, Denmark) and gigaseals were formed upon application of a combined suction/voltage protocol in a standard protocol supplied by Sophion Bioscience for CHO cells. Once the whole-cell mode was obtained, the cells were kept in a holding potential of -90 mV between the programmed stimulation protocols.
Whole-cell potassium currents were measured in response to repeatedly executed voltage protocols constituted of the following steps: brief clamping to −50 mV (200 ms), subsequent depolarization to 20 mV for 4000 ms, and final repolarization to −50 mV when the outward tail current was measured for 4000 ms.
The average current peak values determined in the presence of particular concentrations of the compound tested were subjected to a sigmoidal dose–response curve fitting, where the bottom plateau parameter was constrained to 0. The IC50 values were then calculated from the obtained sigmoidal dose–response curves. Data were analyzed using QPatch Assay Software (v5.0, Sophion Bioscience, Ballerup, Denmark) and represent the mean of three experiments carried out on distinct cells.

rats = experiment: Heart rate and ECG intervals in rats; type: in vivo, male Wistar rats; conditions: 10 mg/kg i.p.
Experimental: as §1
In vivo electrocardiographic measurements were performed using an ASPEL ASCARD B5 apparatus, standard lead II, and a paper speed of 50 mm/s. The study was carried out after a single administration of the test compounds (10 mg/kg i.p.). […] The following parameters were then calculated and analyzed: duration of PQ, QT, QRS, RR intervals, and heart rate.

[4] = system: rats fed a palatable diet; experiment: Plasma AlaT, AspaT, gGT and ALP activity after repeated administration in rats fed a palatable diet; type: in vivo; conditions: 10 mg/kg b.w. i.p. repeated
Experimental: Standard diet ( 8% fats, 67% carbohydrates, and 25% proteins) contained 100 g feed—280 kcal. Rats fed a palatable diet had access to a diet consisting of milk chocolate with nuts, cheese, salted peanuts, and 7% condensed milk and simultaneously to standard feed (Labofeed B, Morawski Manufacturer Feed, Kcynia, Poland) for 4 weeks. The feeding was not in any way forced, and rats decided themselves when, what, and how much to eat. A palatable diet contained 100 g of peanuts—612 kcal; 100 mL of condensed milk—131 kcal; 100 g of milk chocolate—529 kcal; and 100 g of cheese—325 kcal.
The study evaluating the activities of alanine aminotransferase (AlaT), aspartate aminotransferase (AspaT), gamma-glutamyl transpeptidases (gGT), and alkaline phosphatase (ALP) was carried out after completing the excessive eating model experiments described in our previous work. Compounds were administered for twenty-eight days at a dose of 10 mg/kg b.w./day. On the 31st day of the experiment, 20 min after i.p. administration of heparin (5000 units/rat) and thiopental (70 mg/kg b.w.), blood was collected from the left carotid artery and then centrifuged at 600× g (15 min, 4 °C) in order to obtain the plasma. To determine the activities of AlaT, AapaT, gGT, and ALP in the plasma samples, a standard enzymatic spectrophotometric test (Biomaxima S.A., Lublin, Poland) was used.

H3R = biological target: H3R; set-up: method as in PMID 34908391; conditions: cited from earlier work
σ1R = biological target: σ1R; set-up: method as in PMID 34908391; conditions: cited from earlier work
σ2R = biological target: σ2R; set-up: method as in PMID 34908391; conditions: cited from earlier work

T1 sequence (Q12809 whole entry): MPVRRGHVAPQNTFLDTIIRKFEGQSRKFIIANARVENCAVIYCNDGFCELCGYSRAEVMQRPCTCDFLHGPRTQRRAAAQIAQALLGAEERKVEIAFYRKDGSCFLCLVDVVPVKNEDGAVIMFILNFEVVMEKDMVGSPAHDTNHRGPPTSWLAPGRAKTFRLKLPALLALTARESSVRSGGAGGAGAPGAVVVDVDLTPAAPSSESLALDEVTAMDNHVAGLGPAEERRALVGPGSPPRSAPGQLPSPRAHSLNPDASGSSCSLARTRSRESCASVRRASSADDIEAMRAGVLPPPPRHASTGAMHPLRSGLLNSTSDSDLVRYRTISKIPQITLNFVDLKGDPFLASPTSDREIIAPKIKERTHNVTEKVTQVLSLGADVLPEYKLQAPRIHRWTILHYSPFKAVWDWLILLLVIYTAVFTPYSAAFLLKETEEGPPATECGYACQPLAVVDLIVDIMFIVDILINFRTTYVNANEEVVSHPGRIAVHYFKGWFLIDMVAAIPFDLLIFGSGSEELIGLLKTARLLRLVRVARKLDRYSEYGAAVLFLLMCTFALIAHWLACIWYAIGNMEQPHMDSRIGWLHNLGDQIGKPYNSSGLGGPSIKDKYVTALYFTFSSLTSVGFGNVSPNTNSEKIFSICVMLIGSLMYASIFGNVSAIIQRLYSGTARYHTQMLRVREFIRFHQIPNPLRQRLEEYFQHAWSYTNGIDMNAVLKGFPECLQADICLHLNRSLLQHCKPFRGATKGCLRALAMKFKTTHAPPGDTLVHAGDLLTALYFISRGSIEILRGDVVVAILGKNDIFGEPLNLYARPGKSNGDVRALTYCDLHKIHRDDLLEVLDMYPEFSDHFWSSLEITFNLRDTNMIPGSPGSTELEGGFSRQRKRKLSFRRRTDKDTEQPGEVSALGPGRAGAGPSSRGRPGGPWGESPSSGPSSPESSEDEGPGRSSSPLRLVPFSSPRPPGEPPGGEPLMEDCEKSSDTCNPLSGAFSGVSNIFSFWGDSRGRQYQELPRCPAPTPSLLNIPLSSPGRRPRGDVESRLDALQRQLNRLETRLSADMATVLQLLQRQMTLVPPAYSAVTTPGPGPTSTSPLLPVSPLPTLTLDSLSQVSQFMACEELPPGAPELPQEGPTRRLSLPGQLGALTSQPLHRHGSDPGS

For `Clc1ccc(CCCOCCCN2CCCCC2)cc1` [Pitolisant], the Ki (sigma-2 receptors) is given as 6.5 nM.
In the case of `CC(=O)c1ccc(OCCCCCCCCN2CCN(c3ccncc3)CC2)cc1` [KSK-73], the Locomotor activity (mice [1]) is reported as “significant decrease”, the “% of Mice Impaired” value (mice [2]; 10 mg/kg i.p.) is reported as 12.5% and the “% of Mice Impaired” value (mice [2]; 20 mg/kg i.p.) is reported as 0%. The “% of Mice Impaired” value (mice [2]; 30 mg/kg i.p.) was 0%, the “Decrease of diastolic blood pressure” value (normotensive rats) was 10–14 mmHg and the “Decrease of systolic blood pressure” value (normotensive rats) was “approx. 12 mmHg”. The IC50 ([3]; CHO cells stably expressing human ERG, whole-cell, mean of three experiments, read-out: Mean IC50 ± SEM, inhibition of hERG currents) was 2070 ± 402 nM, the “Inhibition of hERG compared with verapamil” value ([3]; relative to reference compound verapamil) was “four times weaker” and the Heart rate (rats; time 0 min) was 370.0 ± 23.9 beats/min. The PQ (rats; time 0 min) was 56.3 ± 2.2 ms, the QRS (rats; time 0 min) was 22.7 ± 5.4 ms and the QT (rats; time 0 min) was 61.3 ± 2.2 ms. For the same molecule, the Heart rate (rats; time 15 min) was 375.5 ± 23.9 beats/min, the PQ (rats; time 15 min) was 51.3 ± 2.2 ms and the QRS (rats; time 15 min) was 22.7 ± 5.4 ms. For the same molecule, the QT (rats; time 15 min) was 63.8 ± 4.1 ms, the Heart rate (rats; time 30 min) was 377.1 ± 27.3 beats/min and the PQ (rats; time 30 min) was 51.3 ± 2.2 ms. The QRS (rats; time 30 min) was 22.7 ± 5.4 ms, the QT (rats; time 30 min) was 60.0 ± 7.1 ms and the Heart rate (rats; time 45 min) was 395.8 ± 33.3 beats/min. For the same molecule, the PQ (rats; time 45 min) was 52.5 ± 2.5 ms, the QRS (rats; time 45 min) was 20.0 ± 0.0 ms and the QT (rats; time 45 min) was 58.8 ± 2.2 ms. For the same molecule, the Heart rate (rats; time 60 min) was 377.0 ± 26.4 beats/min, the PQ (rats; time 60 min) was 53.8 ± 2.2 ms and the QRS (rats; time 60 min) was 20.0 ± 0.0 ms. The QT (rats; time 60 min) was 63.8 ± 6.5 ms, the “Plasma gGT activity” value ([4]; vs palatable feed-fed control group) was “statistically lower gGT activity” and the “Plasma AlaT activity” value ([4]; vs vehicle control fed palatable feed) was “lower”. For the same molecule, the “Plasma ALP activity” value ([4]; vs vehicle group with palatable feed) was “lower plasma ALP activity”, the Ki (H3R) was 40.5 nM and the H3/σ1 (H3R; ratio of Ki values) was 0.1. The H3/σ2 (H3R; ratio of Ki values) was 0.68, the Ki (σ1R) was 408 nM and the σ1/σ2 (σ1R; ratio of Ki values) was 6.84. For the same molecule, the Ki (σ2R) was 59.7 nM.
